Assay: recombinant UMI read abundance after kanamycin selection (control-corrected) (log10(CPM+1)); higher = more efficient recombination; extreme values may be limits of the assay; sequences stand for … in AGTGCAGAGAAAATCGGCCAGTTTTCTCTGCCTGCAGTCCGCATGCCGTGGGACCCCTTGGGTTCTAACCTGTTGCCTAGATTTATGCAGCGGACTGCCTTTCTCCCAAAGTGATAAACCGG…AGGTTGGTTTCACT; site = the 11-nt donor
In short: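 Each donor and donor-binding-loop pair was tracked by a 12-nt UMI on a plasmid carrying a promoterless kanamycin gene. With a second plasmid supplying a fixed target and T7-inducible IS621 bridge recombinase, the pool was plated in Escherichia coli on IPTG (0.07 mM) plus kanamycin or unselected. Sequencing of recombinant UMIs across the donor–target junction gave counts expressed as log10(CPM+1) after replicate averaging and control-derived scaling.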
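Further: IS621 bridge recombinase in Escherichia coli cells against a fixed T5 target plasmid.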

| Sequence | recombinant UMI read abundance (log10) |
| --- | --- |
| GCTGCTTCATGGACCGGTTTTCCCGGTAATCCGTATTTGTA (site GCTGCTTCTTA) | 0.981 |
| GCTGGAGCATGGACCGGTTTTCCCGGTAATCCGTATTTGAG (site GCTGGAGCTCT) | 1.41 |
| GCTGGCGCATGGACCGGTTTTCCCGGTAATCCGTATTTGTA (site GCTGGCGCTTA) | 0.982 |
| GCTGTTACATGGACCGGTTTTCCCGGTAATCCGTATTTGCG (site GCTGTTACTCG) | 1.48 |
| GCTTAGTCATGGACCGGTTTTCCCGGTAATCCGTATTTGTT (site GCTTAGTCTAA) | 2.37 |
| GCTTGCACATGGACCGGTTTTCCCGGTAATCCGTATTTGAT (site GCTTGCACTAT) | 1.16 |
| GCTTGCACATGGACCGGTTTTCCCGGTAATCCGTATTTGAT (site GCTTGCCCTAT) | 0.00585 |
| GCTTGCACATGGACCGGTTTTCCCGGTAATCCGTATTTGAT (site GCTTGCGCTAT) | 0.0165 |
| GCTTGCACATGGACCGGTTTTCCCGGTAATCCGTATTTGAT (site GCTTGCTCTAT) | 0.396 |
| GCTTGCCCATGGACCGGTTTTCCCGGTAATCCGTATTTGCT (site GCTTGCCCTAA) | 0.0261 |
| GCTTGCCCATGGACCGGTTTTCCCGGTAATCCGTATTTGCT (site GCTTGCCCTAC) | 0.00338 |
| GCTTGCCCATGGACCGGTTTTCCCGGTAATCCGTATTTGCT (site GCTTGCCCTAG) | 0.858 |
| GCTTGCCCATGGACCGGTTTTCCCGGTAATCCGTATTTGCT (site GCTTGCCCTAT) | 0.0783 |
| GCTTGCGCATGGACCGGTTTTCCCGGTAATCCGTATTTGGT (site GCTTGCGCTAC) | 0.514 |
| GCTTGCTCATGGACCGGTTTTCCCGGTAATCCGTATTTGAT (site GCTTGCACTAT) | 0.00386 |
| GCTTGCTCATGGACCGGTTTTCCCGGTAATCCGTATTTGAT (site GCTTGCCCTAT) | 0 |
| GCTTGCTCATGGACCGGTTTTCCCGGTAATCCGTATTTGAT (site GCTTGCGCTAT) | 0.00706 |
| GCTTGCTCATGGACCGGTTTTCCCGGTAATCCGTATTTGAT (site GCTTGCTCTAT) | 1.46 |
| GCTTGTCCATGGACCGGTTTTCCCGGTAATCCGTATTTGAT (site GCTTGACCTAT) | 0.00264 |
| GCTTGTCCATGGACCGGTTTTCCCGGTAATCCGTATTTGAT (site GCTTGCCCTAT) | 0.021 |
| GCTTGTCCATGGACCGGTTTTCCCGGTAATCCGTATTTGAT (site GCTTGGCCTAT) | 0 |
| GCTTGTCCATGGACCGGTTTTCCCGGTAATCCGTATTTGAT (site GCTTGTCCTAT) | 0 |
| GCTTGTTCATGGACCGGTTTTCCCGGTAATCCGTATTTGAA (site GCTTGTTCTTT) | 0.489 |
| GCTTGTTCATGGACCGGTTTTCCCGGTAATCCGTATTTGCT (site GCTTGTTCTAG) | 1.84 |
| GGAAACCCATGGACCGGTTTTCCCGGTAATCCGTATTTGCC (site GGAAACCCTGG) | 0 |

| Sequence | recombinant UMI read abundance (log10) |
| --- | --- |
| GGAACGACATGGACCGGTTTTCCCGGTAATCCGTATTTGAT (site GGAACGACTAT) | 1.43 |
| GGAATGCCATGGACCGGTTTTCCCGGTAATCCGTATTTGCA (site GGAATGCCTTG) | 0 |
| GGACAGCCATGGACCGGTTTTCCCGGTAATCCGTATTTGCA (site GGACAGCCTTG) | 1.07 |
| GGACCATCATGGACCGGTTTTCCCGGTAATCCGTATTTGTC (site GGACCATCTGA) | 2.27 |
| GGACCGGCATGGACCGGTTTTCCCGGTAATCCGTATTTGGG (site GGACCGGCTCC) | 0.0163 |
| GGACTCACATGGACCGGTTTTCCCGGTAATCCGTATTTGTG (site GGACTCACTCA) | 0.00312 |
| GGACTTCCATGGACCGGTTTTCCCGGTAATCCGTATTTGAA (site GGACTTCCTTT) | 1.42 |
| GGAGACTCATGGACCGGTTTTCCCGGTAATCCGTATTTGGC (site GGAGACTCTGC) | 0.784 |
| GGAGACTCATGGACCGGTTTTCCCGGTAATCCGTATTTGTG (site GGAGACTCTCA) | 1.74 |
| GGAGAGGCATGGACCGGTTTTCCCGGTAATCCGTATTTGGT (site GGAGAGGCTAC) | 0.00324 |
| GGAGAGGCATGGACCGGTTTTCCCGGTAATCCGTATTTGGT (site GGAGCGGCTAC) | 0.00751 |
| GGAGAGGCATGGACCGGTTTTCCCGGTAATCCGTATTTGGT (site GGAGGGGCTAC) | 0.0239 |
| GGAGAGGCATGGACCGGTTTTCCCGGTAATCCGTATTTGGT (site GGAGTGGCTAC) | 0.0204 |
| GGAGATCCATGGACCGGTTTTCCCGGTAATCCGTATTTGCA (site GGAGATCCTTG) | 0 |
| GGAGATTCATGGACCGGTTTTCCCGGTAATCCGTATTTGTT (site GAAGATTCTAA) | 0 |
| GGAGATTCATGGACCGGTTTTCCCGGTAATCCGTATTTGTT (site GCAGATTCTAA) | 0 |
| GGAGATTCATGGACCGGTTTTCCCGGTAATCCGTATTTGTT (site GGAGATTCTAA) | 2.52 |
| GGAGATTCATGGACCGGTTTTCCCGGTAATCCGTATTTGTT (site GTAGATTCTAA) | 0 |
| GGAGCTTCATGGACCGGTTTTCCCGGTAATCCGTATTTGGC (site GGAGCTTCTGC) | 1.5 |
| GGAGGACCATGGACCGGTTTTCCCGGTAATCCGTATTTGGG (site AGAGGACCTCC) | 0 |
| GGAGGACCATGGACCGGTTTTCCCGGTAATCCGTATTTGGG (site CGAGGACCTCC) | 0.0177 |
| GGAGGACCATGGACCGGTTTTCCCGGTAATCCGTATTTGGG (site GGAGGACCTCC) | 0.00471 |
| GGAGGACCATGGACCGGTTTTCCCGGTAATCCGTATTTGGG (site TGAGGACCTCC) | 0.00615 |
| GGAGGTTCATGGACCGGTTTTCCCGGTAATCCGTATTTGAT (site GGAGGTTCTAT) | 1.87 |
| GGAGTAGCATGGACCGGTTTTCCCGGTAATCCGTATTTGTC (site GGAGTAGCTGA) | 1.98 |

| Sequence | recombinant UMI read abundance (log10) |
| --- | --- |
| GGAGTGGCATGGACCGGTTTTCCCGGTAATCCGTATTTGAT (site GGAGTGGCTAA) | 0.00289 |
| GGAGTGGCATGGACCGGTTTTCCCGGTAATCCGTATTTGAT (site GGAGTGGCTAC) | 0.0174 |
| GGAGTGGCATGGACCGGTTTTCCCGGTAATCCGTATTTGAT (site GGAGTGGCTAG) | 0 |
| GGAGTGGCATGGACCGGTTTTCCCGGTAATCCGTATTTGAT (site GGAGTGGCTAT) | 1.87 |
| GGAGTGGCATGGACCGGTTTTCCCGGTAATCCGTATTTGTT (site GGAGTGGCTAA) | 1.06 |
| GGAGTGGCATGGACCGGTTTTCCCGGTAATCCGTATTTGTT (site GGAGTGGCTAC) | 0.00283 |
| GGAGTGGCATGGACCGGTTTTCCCGGTAATCCGTATTTGTT (site GGAGTGGCTAG) | 1.76 |
| GGAGTGGCATGGACCGGTTTTCCCGGTAATCCGTATTTGTT (site GGAGTGGCTAT) | 0.767 |
| GGATAAACATGGACCGGTTTTCCCGGTAATCCGTATTTGCC (site GGATAAACTGG) | 2.49 |
| GGATAAACATGGACCGGTTTTCCCGGTAATCCGTATTTGCC (site GGATACACTGG) | 1.01 |
| GGATAAACATGGACCGGTTTTCCCGGTAATCCGTATTTGCC (site GGATAGACTGG) | 0 |
| GGATAAACATGGACCGGTTTTCCCGGTAATCCGTATTTGCC (site GGATATACTGG) | 0 |
| GGATACACATGGACCGGTTTTCCCGGTAATCCGTATTTGCC (site GGATAAACTGG) | 0 |
| GGATACACATGGACCGGTTTTCCCGGTAATCCGTATTTGCC (site GGATACACTGG) | 2.97 |
| GGATACACATGGACCGGTTTTCCCGGTAATCCGTATTTGCC (site GGATAGACTGG) | 0 |
| GGATACACATGGACCGGTTTTCCCGGTAATCCGTATTTGCC (site GGATATACTGG) | 0 |
| GGATAGACATGGACCGGTTTTCCCGGTAATCCGTATTTGCA (site GGATAGACTAG) | 0.763 |
| GGATAGACATGGACCGGTTTTCCCGGTAATCCGTATTTGCA (site GGATAGACTCG) | 0.831 |
| GGATAGACATGGACCGGTTTTCCCGGTAATCCGTATTTGCA (site GGATAGACTGG) | 0.112 |
| GGATAGACATGGACCGGTTTTCCCGGTAATCCGTATTTGCA (site GGATAGACTTG) | 2.79 |
| GGATAGACATGGACCGGTTTTCCCGGTAATCCGTATTTGCG (site GGATAGACTAG) | 2.19 |
| GGATAGACATGGACCGGTTTTCCCGGTAATCCGTATTTGCG (site GGATAGACTCG) | 2.55 |
| GGATAGACATGGACCGGTTTTCCCGGTAATCCGTATTTGCG (site GGATAGACTGG) | 1.52 |
| GGATAGACATGGACCGGTTTTCCCGGTAATCCGTATTTGCG (site GGATAGACTTG) | 2.13 |
| GGCAAGACATGGACCGGTTTTCCCGGTAATCCGTATTTGCA (site AGGAAGACTTG) | 0 |
